Consider six compounds from PubChem BioAssay AID1259407 (Chemical Carcinogenesis Research Information System (CCRIS), 2018).

Activity calls are given as the source filed them. How the calls were made is not given here.

The subject of the data set is CCRIS mutagenicity, Ames/micronucleus/aberration tests. In words: CCRIS mutagenicity studies.
Setting [1] is: Test System: AMES SALMONELLA TYPHIMURIUM, Strain/Indicator: TA98, Metabolic Activation: NONE, Method: PREINCUBATION
The mark [2] stands for this setting: Test System: AMES SALMONELLA TYPHIMURIUM, Strain/Indicator: TA100, Metabolic Activation: NONE, Method: PREINCUBATION
Setting [3] is: Test System: AMES SALMONELLA TYPHIMURIUM, Strain/Indicator: TA1535, Metabolic Activation: NONE, Method: PREINCUBATION

Regarding `O=C(ON=C1C=CC(=NOC(=O)c2ccccc2)C=C1)c1ccccc1`, the mutagenic call is “inactive; negative” (End Point: IN VITRO CHROMOSOMAL ABERRATIONS, Test System: CHL CELLS, Metabolic Activation: RAT, LIVER, S-9, SODIUM PHENOBARBITAL AND 5,6-BENZOFLAVONE); “active; positive” under setting [1]; “active; positive” (Test System: AMES SALMONELLA TYPHIMURIUM, Strain/Indicator: TA98, Metabolic Activation: RAT LIVER S-9, PHENOBARBITAL AND BETA-NAPHTHOFLAVONE, Method: PREINCUBATION); “inactive; negative” under setting [2]; “active; positive” (Test System: AMES SALMONELLA TYPHIMURIUM, Strain/Indicator: TA100, Metabolic Activation: RAT LIVER S-9, PHENOBARBITAL AND BETA-NAPHTHOFLAVONE, Method: PREINCUBATION); “inactive; negative” under setting [3]. For the same compound, the mutagenic call was “inactive; negative” (Test System: AMES SALMONELLA TYPHIMURIUM, Strain/Indicator: TA1535, Metabolic Activation: RAT LIVER S-9, PHENOBARBITAL AND BETA-NAPHTHOFLAVONE, Method: PREINCUBATION); “inactive; negative” (Test System: AMES SALMONELLA TYPHIMURIUM, Strain/Indicator: TA1537, Metabolic Activation: NONE, Method: PREINCUBATION); “active; positive” (Test System: AMES SALMONELLA TYPHIMURIUM, Strain/Indicator: TA1537, Metabolic Activation: RAT LIVER S-9, PHENOBARBITAL AND BETA-NAPHTHOFLAVONE, Method: PREINCUBATION); “active; positive” (Test System: AMES SALMONELLA TYPHIMURIUM, Strain/Indicator: TA1538, Metabolic Activation: NONE, Method: PREINCUBATION); “active; positive” (Test System: AMES SALMONELLA TYPHIMURIUM, Strain/Indicator: TA1538, Metabolic Activation: RAT LIVER S-9, PHENOBARBITAL AND BETA-NAPHTHOFLAVONE, Method: PREINCUBATION); “inactive; negative” (Test System: E.COLI, Strain/Indicator: WP2UVRA, Metabolic Activation: NONE, Method: PREINCUBATION). Moreover, the mutagenic call (Test System: E.COLI, Strain/Indicator: WP2UVRA, Metabolic Activation: RAT LIVER S-9, PHENOBARBITAL AND BETA-NAPHTHOFLAVONE, Method: PREINCUBATION) was “inactive; negative”.
For `Cc1c(C)c([N+](=O)[O-])c(C(C)(C)C)c([N+](=O)[O-])c1C`, the mutagenic call runs as follows: (Test System: AMES SALMONELLA TYPHIMURIUM, Strain/Indicator: TA98, Metabolic Activation: RAT, LIVER, S-9, AROCLOR 1254, Method: PREINCUBATION) “inactive; negative”; (Test System: AMES SALMONELLA TYPHIMURIUM, Strain/Indicator: TA98, Metabolic Activation: RAT, LIVER, S-9, AROCLOR 1254, Method: STANDARD PLATE) “inactive; negative”; (Test System: AMES SALMONELLA TYPHIMURIUM, Strain/Indicator: TA100, Metabolic Activation: RAT, LIVER, S-9, AROCLOR 1254, Method: PREINCUBATION) “inactive; negative”; (Test System: AMES SALMONELLA TYPHIMURIUM, Strain/Indicator: TA100, Metabolic Activation: RAT, LIVER, S-9, AROCLOR 1254, Method: STANDARD PLATE) “inactive; negative”.
Consider `O=C1NC(=O)C2CC=CCC12` (stereo not drawn), for which the mutagenic call by setting is: (Test System: AMES SALMONELLA TYPHIMURIUM, Strain/Indicator: TA102, Metabolic Activation: NONE, Method: STANDARD PLATE) “inactive; negative”; (Test System: AMES SALMONELLA TYPHIMURIUM, Strain/Indicator: TA102, Metabolic Activation: RAT, LIVER, S-9, PHENOBARBITAL, Method: STANDARD PLATE) “inactive; negative”; (Test System: AMES SALMONELLA TYPHIMURIUM, Strain/Indicator: TA104, Metabolic Activation: NONE, Method: STANDARD PLATE) “inactive; negative”; (Test System: AMES SALMONELLA TYPHIMURIUM, Strain/Indicator: TA104, Metabolic Activation: RAT, LIVER, S-9, PHENOBARBITAL, Method: STANDARD PLATE) “inactive; negative”.
For the compound `O=C(O[C@@H]1Cc2c(O)cc(O)cc2O[C@H]1c1ccc(O)c(O)c1)c1cc(O)c(O)c(O)c1`, the mutagenic call reads like this: (Test System: Ames Salmonella typhimurium, Strain/Indicator: TA102, Metabolic Activation: None, Method: Preincubation) “inactive; negative”; (Test System: Ames Salmonella typhimurium, Strain/Indicator: TA102, Metabolic Activation: Rat, Liver, S-9, Aroclor 1254 in 0.154 M KCl, Method: Preincubation) “inactive; negative”.
On to `CCC[CH2][Sn]([CH2]CCC)([CH2]CCC)[O][Sn]([CH2]CCC)([CH2]CCC)[CH2]CCC`, for which the mutagenic call is “inactive; negative” (Test System: AMES SALMONELLA TYPHIMURIUM, Strain/Indicator: TA97, Metabolic Activation: HAMSTER, LIVER, S-9, AROCLOR 1254 (10 OR 30%), Method: PREINCUBATION); “inactive; negative” (Test System: AMES SALMONELLA TYPHIMURIUM, Strain/Indicator: TA97, Metabolic Activation: NONE, Method: PREINCUBATION); “inactive; negative” (Test System: AMES SALMONELLA TYPHIMURIUM, Strain/Indicator: TA97, Metabolic Activation: RAT, LIVER, S-9, AROCLOR 1254 (10 OR 30%), Method: PREINCUBATION); “inactive; negative” (Test System: AMES SALMONELLA TYPHIMURIUM, Strain/Indicator: TA98, Metabolic Activation: HAMSTER, LIVER, S-9, AROCLOR 1254 (10 OR 30%), Method: PREINCUBATION); “inactive; negative” under setting [1]; “inactive; negative” (Test System: AMES SALMONELLA TYPHIMURIUM, Strain/Indicator: TA98, Metabolic Activation: NONE, Method: SUSPENSION/PLATE). In addition, the mutagenic call was “inactive; negative” (Test System: AMES SALMONELLA TYPHIMURIUM, Strain/Indicator: TA98, Metabolic Activation: RAT, LIVER, S-9, AROCLOR 1254 (10 OR 30%), Method: PREINCUBATION); “inactive; negative” (Test System: AMES SALMONELLA TYPHIMURIUM, Strain/Indicator: TA100, Metabolic Activation: HAMSTER, LIVER, S-9, AROCLOR 1254 (10 OR 30%), Method: PREINCUBATION); “inactive; negative” under setting [2]; “inactive; negative” (Test System: AMES SALMONELLA TYPHIMURIUM, Strain/Indicator: TA100, Metabolic Activation: NONE, Method: SUSPENSION/PLATE); “inactive; negative” (Test System: AMES SALMONELLA TYPHIMURIUM, Strain/Indicator: TA100, Metabolic Activation: RAT, LIVER, S-9, AROCLOR 1254 (10 OR 30%), Method: PREINCUBATION); “inactive; negative” (Test System: AMES SALMONELLA TYPHIMURIUM, Strain/Indicator: TA1535, Metabolic Activation: HAMSTER, LIVER, S-9, AROCLOR 1254 (10 OR 30%), Method: PREINCUBATION). Further, the mutagenic call by setting is: under setting [3], “inactive; negative”; (Test System: AMES SALMONELLA TYPHIMURIUM, Strain/Indicator: TA1535, Metabolic Activation: RAT, LIVER, S-9, AROCLOR 1254 (10 OR 30%), Method: PREINCUBATION) “inactive; negative”.
On to `O=C1OC2(c3cc(Br)c(O)c(Br)c3Oc3c2cc(Br)c(O)c3Br)c2c(Cl)ccc(Cl)c21`, for which, where the note is “End Point: IN VIVO MICRONUCLEUS, Test System: BONE MARROW POLYCHROMATIC ERYTHROCYTES, Species: MOUSE, Strain/Sex: DDY/MALE, Route: IP”, the mutagenic call is “inactive; negative”.
